In brackets after ≈: the same amount, converted by molar mass.
System: Mannheimia haemolytica
Assay: minimum inhibitory concentration (MIC)
Experimental: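 Broth microdilution MIC (Sensititre BOPO7F bovine plate, CLSI methods) of 19 antimicrobials against field isolates of P. multocida, M. haemolytica, H. somni (deep nasopharyngeal swabs) and E. coli, Enterococcus spp. (rectal swabs) from weaned dairy heifers. Incubation 16-24 h at 35 C. MIC is the lowest concentration preventing visible growth. Values with <= or > lie at the tested range limits. Trimethoprim-sulfamethoxazole is given as the trimethoprim component of a 1:19 mixture.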

CC[C@H]1OC(=O)C[C@@H](O)[C@H](C)[C@@H](O[C@@H]2O[C@H](C)[C@@H](O)[C@H](N(C)C)[C@H]2O)[C@@H](CCN2C[C@H](C)C[C@H](C)C2)C[C@@H](C)C(=O)/C=C/C(C)=C/[C@@H]1CO[C@@H]1O[C@H](C)[C@@H](O)[C@@H](OC)[C@H]1OC [Tilmicosin]
Conditions	minimum inhibitory concentration [µg/mL]
isolate (source animal id): 8	4 (≈ 4.6 µM)
isolate (source animal id): 13	4 (≈ 4.6 µM)
isolate (source animal id): 18	4 (≈ 4.6 µM)
isolate (source animal id): 21	4 (≈ 4.6 µM)
isolate (source animal id): 25	> 16
isolate (source animal id): 27	> 16
isolate (source animal id): 28	16 (≈ 18.4 µM)
isolate (source animal id): 30	8 (≈ 9.2 µM)
isolate (source animal id): 31	> 16
isolate (source animal id): 32	4 (≈ 4.6 µM)
isolate (source animal id): 34	8 (≈ 9.2 µM)
isolate (source animal id): 36	> 16
isolate (source animal id): 37	> 16
isolate (source animal id): 40	4 (≈ 4.6 µM)
isolate (source animal id): 41	4 (≈ 4.6 µM)
isolate (source animal id): 43	4 (≈ 4.6 µM)
isolate (source animal id): 46	> 16
isolate (source animal id): 49	> 16
isolate (source animal id): 50	> 16
isolate (source animal id): 51	4 (≈ 4.6 µM)
isolate (source animal id): 52	4 (≈ 4.6 µM)
isolate (source animal id): 53	4 (≈ 4.6 µM)
isolate (source animal id): 55	4 (≈ 4.6 µM)
isolate (source animal id): 56	4 (≈ 4.6 µM)
isolate (source animal id): 57	> 16
isolate (source animal id): 100	> 16
isolate (source animal id): 103	> 16
isolate (source animal id): 107	16 (≈ 18.4 µM)
isolate (source animal id): 108	16 (≈ 18.4 µM)
isolate (source animal id): 112	> 16
isolate (source animal id): 113	> 16
isolate (source animal id): 121	> 16
isolate (source animal id): 122	> 16
isolate (source animal id): 123	> 16
isolate (source animal id): 126	> 16
isolate (source animal id): 133	> 16
isolate (source animal id): 135	> 16
isolate (source animal id): 138	> 16
isolate (source animal id): 141	> 16
isolate (source animal id): 142	> 16
isolate (source animal id): 145	16 (≈ 18.4 µM)
isolate (source animal id): 149	8 (≈ 9.2 µM)
isolate (source animal id): 151	8 (≈ 9.2 µM)
isolate (source animal id): 152	> 16
isolate (source animal id): 154	8 (≈ 9.2 µM)
isolate (source animal id): 159	> 16
isolate (source animal id): 162	> 16
isolate (source animal id): 170	16 (≈ 18.4 µM)
isolate (source animal id): 171	8 (≈ 9.2 µM)
isolate (source animal id): 172	16 (≈ 18.4 µM)
isolate (source animal id): 173	16 (≈ 18.4 µM)
isolate (source animal id): 179	8 (≈ 9.2 µM)
isolate (source animal id): 180	4 (≈ 4.6 µM)
isolate (source animal id): 183	4 (≈ 4.6 µM)
isolate (source animal id): 186	4 (≈ 4.6 µM)
isolate (source animal id): 187	8 (≈ 9.2 µM)
isolate (source animal id): 188	4 (≈ 4.6 µM)
isolate (source animal id): 190	4 (≈ 4.6 µM)
isolate (source animal id): 191	16 (≈ 18.4 µM)
isolate (source animal id): 192	8 (≈ 9.2 µM)
isolate (source animal id): 201	16 (≈ 18.4 µM)
isolate (source animal id): 202	16 (≈ 18.4 µM)
isolate (source animal id): 209	16 (≈ 18.4 µM)
isolate (source animal id): 211	16 (≈ 18.4 µM)
isolate (source animal id): 220	16 (≈ 18.4 µM)
isolate (source animal id): 221	8 (≈ 9.2 µM)
isolate (source animal id): 223	8 (≈ 9.2 µM)
isolate (source animal id): 233	8 (≈ 9.2 µM)
isolate (source animal id): 237	> 16
isolate (source animal id): 241	> 16
isolate (source animal id): 252	> 16
isolate (source animal id): 253	> 16
isolate (source animal id): 259	> 16
isolate (source animal id): 260	> 16
isolate (source animal id): 262	> 16
isolate (source animal id): 282	> 16
isolate (source animal id): 287	> 16
isolate (source animal id): 288	4 (≈ 4.6 µM)
isolate (source animal id): 291	4 (≈ 4.6 µM)
isolate (source animal id): 293	> 16
isolate (source animal id): 298	> 16
isolate (source animal id): 299	> 16
isolate (source animal id): 300	8 (≈ 9.2 µM)
isolate (source animal id): 302	> 16
isolate (source animal id): 304	> 16
isolate (source animal id): 306	4 (≈ 4.6 µM)
isolate (source animal id): 308	4 (≈ 4.6 µM)
isolate (source animal id): 309	4 (≈ 4.6 µM)
isolate (source animal id): 313	> 16
isolate (source animal id): 318	> 16
isolate (source animal id): 320	8 (≈ 9.2 µM)
isolate (source animal id): 321	> 16
isolate (source animal id): 323	> 16
isolate (source animal id): 324	> 16
isolate (source animal id): 326	> 16
isolate (source animal id): 328	> 16
isolate (source animal id): 329	> 16
isolate (source animal id): 333	> 16
isolate (source animal id): 335	> 16
isolate (source animal id): 338	> 16

CCCNC[C@]1(O)[C@H](C)O[C@@H](O[C@H]2[C@H](C)[C@@H](O[C@@H]3O[C@H](C)C[C@H](N(C)C)[C@H]3O)[C@](C)(O)C[C@@H](C)CN[C@H](C)[C@@H](O)[C@](C)(O)[C@@H](CC)OC(=O)[C@@H]2C)C[C@@]1(C)OC [Tulathromycin]
Conditions	minimum inhibitory concentration [µg/mL]
isolate (source animal id): 8	≤ 8
isolate (source animal id): 13	≤ 8
isolate (source animal id): 18	≤ 8
isolate (source animal id): 21	≤ 8
isolate (source animal id): 25	16 (≈ 19.8 µM)
isolate (source animal id): 27	16 (≈ 19.8 µM)
isolate (source animal id): 28	≤ 8
isolate (source animal id): 30	≤ 8
isolate (source animal id): 31	16 (≈ 19.8 µM)
isolate (source animal id): 32	≤ 8
isolate (source animal id): 34	≤ 8
isolate (source animal id): 36	16 (≈ 19.8 µM)
isolate (source animal id): 37	16 (≈ 19.8 µM)
isolate (source animal id): 40	≤ 8
isolate (source animal id): 41	≤ 8
isolate (source animal id): 43	≤ 8
isolate (source animal id): 46	16 (≈ 19.8 µM)
isolate (source animal id): 49	16 (≈ 19.8 µM)
isolate (source animal id): 50	16 (≈ 19.8 µM)
isolate (source animal id): 51	≤ 8
isolate (source animal id): 52	≤ 8
isolate (source animal id): 53	≤ 8
isolate (source animal id): 55	≤ 8
isolate (source animal id): 56	≤ 8
isolate (source animal id): 57	> 64
isolate (source animal id): 100	16 (≈ 19.8 µM)
isolate (source animal id): 103	16 (≈ 19.8 µM)
isolate (source animal id): 107	16 (≈ 19.8 µM)
isolate (source animal id): 108	16 (≈ 19.8 µM)
isolate (source animal id): 112	> 64
isolate (source animal id): 113	> 64
isolate (source animal id): 121	16 (≈ 19.8 µM)
isolate (source animal id): 122	16 (≈ 19.8 µM)
isolate (source animal id): 123	> 64
isolate (source animal id): 126	64 (≈ 79.4 µM)
isolate (source animal id): 133	> 64
isolate (source animal id): 135	> 64
isolate (source animal id): 138	64 (≈ 79.4 µM)
isolate (source animal id): 141	> 64
isolate (source animal id): 142	64 (≈ 79.4 µM)
isolate (source animal id): 145	16 (≈ 19.8 µM)
isolate (source animal id): 149	≤ 8
isolate (source animal id): 151	≤ 8
isolate (source animal id): 152	16 (≈ 19.8 µM)
isolate (source animal id): 154	≤ 8
isolate (source animal id): 159	> 64
isolate (source animal id): 162	64 (≈ 79.4 µM)
isolate (source animal id): 170	≤ 8
isolate (source animal id): 171	≤ 8
isolate (source animal id): 172	≤ 8
isolate (source animal id): 173	≤ 8
isolate (source animal id): 179	≤ 8
isolate (source animal id): 180	≤ 8
isolate (source animal id): 183	≤ 8
isolate (source animal id): 186	≤ 8
isolate (source animal id): 187	≤ 8
isolate (source animal id): 188	≤ 8
isolate (source animal id): 190	≤ 8
isolate (source animal id): 191	≤ 8
isolate (source animal id): 192	≤ 8
isolate (source animal id): 201	≤ 8
isolate (source animal id): 202	≤ 8
isolate (source animal id): 209	≤ 8
isolate (source animal id): 211	≤ 8
isolate (source animal id): 220	≤ 8
isolate (source animal id): 221	≤ 8
isolate (source animal id): 223	≤ 8
isolate (source animal id): 233	16 (≈ 19.8 µM)
isolate (source animal id): 237	32 (≈ 39.7 µM)
isolate (source animal id): 241	16 (≈ 19.8 µM)
isolate (source animal id): 252	16 (≈ 19.8 µM)
isolate (source animal id): 253	16 (≈ 19.8 µM)
isolate (source animal id): 259	> 64
isolate (source animal id): 260	16 (≈ 19.8 µM)
isolate (source animal id): 262	16 (≈ 19.8 µM)
isolate (source animal id): 282	> 64
isolate (source animal id): 287	16 (≈ 19.8 µM)
isolate (source animal id): 288	≤ 8
isolate (source animal id): 291	≤ 8
isolate (source animal id): 293	16 (≈ 19.8 µM)
isolate (source animal id): 298	> 64
isolate (source animal id): 299	> 64
isolate (source animal id): 300	≤ 8
isolate (source animal id): 302	> 64
isolate (source animal id): 304	> 64
isolate (source animal id): 306	≤ 8
isolate (source animal id): 308	≤ 8
isolate (source animal id): 309	≤ 8
isolate (source animal id): 313	32 (≈ 39.7 µM)
isolate (source animal id): 318	≤ 8
isolate (source animal id): 320	≤ 8
isolate (source animal id): 321	32 (≈ 39.7 µM)
isolate (source animal id): 323	> 64
isolate (source animal id): 324	16 (≈ 19.8 µM)
isolate (source animal id): 326	32 (≈ 39.7 µM)
isolate (source animal id): 328	32 (≈ 39.7 µM)
isolate (source animal id): 329	32 (≈ 39.7 µM)
isolate (source animal id): 333	32 (≈ 39.7 µM)
isolate (source animal id): 335	16 (≈ 19.8 µM)
isolate (source animal id): 338	16 (≈ 19.8 µM)
